EP0428132A1, “Pradimicin derivatives” (Bristol-Myers Squibb Company, priority 1989, dated 1991)
Converted amounts (≈) assume the structure as drawn. Structures can show the parent of a compound that is named as a salt.

Tests used:
[1] = test system: Candida albicans A25578; assay: In vitro antifungal activity, serial agar dilution method (Table 1a); format: cell-based; conditions: A25578, YM agar (pH 7.0, Difco), 30°C for 2 days (yeast) or 4 days (filamentous fungi), read-out: MICs, Candida albicans A25578
Experimental: (§1) The inoculum size was adjusted to 10⁶ cells/ml, and a volume of approximately 0.003 ml of fungal suspension was applied to the surface of the antibiotic containing agar plates with a multiinoculator. After incubation, the lowest concentration of antibiotic causing virtually complete inhibition of fungal growth was determined as the minimum inhibitory concentration (MIC).

[2] = test system: Candida albicans A9540; assay: as above; format: cell-based; conditions: A9540, YM agar (pH 7.0, Difco), 30°C for 2 days (yeast) or 4 days (filamentous fungi), read-out: MICs, Candida albicans A9540
Experimental: as §1

[3] = test system: Candida paratropicalis A25825; assay: as above; format: cell-based; conditions: YM agar (pH 7.0, Difco); 30°C for 2 days (yeast) or 4 days (filamentous fungi); read-out: MICs, Candida paratropicalis A25825
Experimental: as §1

[4] = test system: Candida pseudotropicalis A25802; assay: as above; format: cell-based; conditions: Kluyveromyces marxianus, YM agar (pH 7.0, Difco), 30°C for 2 days (yeast) or 4 days (filamentous fungi), read-out: MICs, Candida pseudotropicalis A25802
Experimental: as §1

[5] = test system: Candida tropicalis A25812; assay: as above; format: cell-based; conditions: A25812, YM agar (pH 7.0, Difco), 30°C for 2 days (yeast) or 4 days (filamentous fungi), read-out: MICs, Candida tropicalis A25812
Experimental: as §1

[6] = test system: Cryptococcus neoformans A15053; assay: as above; format: cell-based; conditions: A15053, YM agar (pH 7.0, Difco), 30°C for 2 days (yeast) or 4 days (filamentous fungi), read-out: MICs, Cryptococcus neoformans A15053
Experimental: as §1

[7] = test system: Saccharomyces cerevisiae A25803; assay: as above; format: cell-based; conditions: YM agar (pH 7.0, Difco), 30°C for 2 days (yeast) or 4 days (filamentous fungi), read-out: MICs, Saccharomyces cerevisiae A25803
Experimental: as §1

[8] = test system: M. gypseum A22810; assay: In vitro antifungal activity, serial agar dilution method (Table 1a, footnote strain 1); format: cell-based, Microsporum gypseum; conditions: Nannizzia gypsea, strain per footnote **1, YM agar (pH 7.0, Difco), 30°C for 2 days (yeast) or 4 days (filamentous fungi), read-out: MICs, M. gypseum A22810
Experimental: as §1

[9] = test system: T. rubrum A24195; assay: In vitro antifungal activity, serial agar dilution method (Table 1a, footnote strain 2); format: cell-based; conditions: Trichophyton rubrum, A24195, pH 7, read-out: MICs, T. rubrum A24195
Experimental: as §1

[10] = test system: T. mentagrophytes A22838; assay: In vitro antifungal activity, serial agar dilution method (Table 1a, footnote strain 3); format: cell-based; conditions: Trichophyton mentagrophytes, strain per footnote **3, YM agar (pH 7.0, Difco), 30°C for 2 days (yeast) or 4 days (filamentous fungi), read-out: MICs, T. mentagrophytes A22838
Experimental: as §1

[11] = test system: M. canis A22494; assay: In vitro antifungal activity, serial agar dilution method (Table 1a, footnote strain 6); format: cell-based; conditions: Microsporum canis, A22494, pH 7, read-out: MICs, M. canis A22494
Experimental: as §1

[12] = test system: Candida tropicalis A25809; assay: In vitro antifungal activity, serial agar dilution method (Table 1a); format: cell-based; conditions: YM agar (pH 7.0, Difco), 30°C for 2 days (yeast) or 4 days (filamentous fungi), read-out: MICs, Candida tropicalis A25809
Experimental: as §1

[13] = test system: Microsporum canis WW10218; assay: as above; format: cell-based; conditions: WW10218, pH 7, read-out: MICs, Microsporum canis WW10218
Experimental: as §1

[14] = test system: Microsporum gypseum WW1107; assay: as above; format: cell-based; conditions: Nannizzia gypsea, YM agar (pH 7.0, Difco), 30°C for 2 days (yeast) or 4 days (filamentous fungi), read-out: MICs, Microsporum gypseum WW1107
Experimental: as §1

[15] = test system: Trichophyton mentagrophytes A26771; assay: as above; format: cell-based; conditions: A26771, YM agar (pH 7.0, Difco), 30°C for 2 days (yeast) or 4 days (filamentous fungi), read-out: MICs, Trichophyton mentagrophytes A26771
Experimental: as §1

[16] = test system: Trichophyton rubrum A26761; assay: as above; format: cell-based; conditions: A26761, pH 7, read-out: MICs, Trichophyton rubrum A26761
Experimental: as §1

[17] = test system: Candida albicans A9540; assay: Intravenous Candida albicans infection mouse model, Table 2 part B; format: in vivo, mice
Experimental: Several compounds were also evaluated in an intravenous Candida albicans […] infection mouse model. The test organism was suspended in saline approximately 10 times the median lethal dose of the fungus (10⁶ cells/mouse) were used to infect intravenously male ICR mice weighing 20 to 24 g. Groups of five mice at each dose level were given the test compounds intravenously or intramuscularly. The 50% protective dose (PD₅₀) was calculated from survival rates recorded 20 or 21 days after the fungal challenge. […]

[18] = Water solubility, protocol I (PBS, HPLC); format: physicochemical; conditions: Method I: PBS without CaCl₂ and MgCl₂.6H₂O
Experimental: The supernatant (2 µL) was analyzed by HPLC using the conditions specified for each compound in the Experimental Section. […] When not soluble, an additional amount of PBS (x µL) was added, sonicated, and centrifuged. When visibly soluble, the solution (2 µL) was injected to HPLC and the peak area was used for the known concentration of the sample.

[19] = test system: M. gypseum A26835; assay: In vitro antifungal activity, serial agar dilution method (Table 1a, footnote strain 4); format: cell-based, Microsporum gypseum; conditions: Nannizzia gypsea, A26835; strain per footnote **4; YM agar (pH 7.0, Difco); 30°C for 2 days (yeast) or 4 days (filamentous fungi); read-out: MICs, M. gypseum A26835
Experimental: as §1

[20] = test system: M. canis A26834; assay: In vitro antifungal activity, serial agar dilution method (Table 1a, footnote strain 5); format: cell-based; conditions: Microsporum canis, A26834, pH 7, read-out: MICs, M. canis A26834
Experimental: as §1

Structure (SMILES)	MIC [1]	MIC [2]	MIC [3]	MIC [4]	MIC [5]	MIC [6]	MIC [7]	MIC [12]	MIC [13]	MIC [14]	MIC [15]	MIC [16]	PD₅₀ ([17]; mouse, in vivo)	solubility [18]	also measured
COc1cc(O)c2c(c1)C(=O)c1c(cc3c(c1O)-c1c(cc(C)c(C(=O)N[C@H](C)C(=O)O)c1O)[C@H](O[C@@H]1O[C@H](C)[C@H](N(C)C(=O)[C@@H](N)CCC(=O)O)[C@H](O)[C@H]1O)[C@H]3O)C2=O [Ex. 20, N-(L-glutamyl) pradimicin B formate salt]	12.5 µg/mL	25 µg/mL	25 µg/mL	6.3 µg/mL	25 µg/mL	50 µg/mL	6.3 µg/mL								MIC [8]: 12.5 µg/mL; MIC [9]: 12.5 µg/mL; MIC [10]: 12.5 µg/mL; MIC [11]: 12.5 µg/mL
C=CCN(C)[C@@H]1[C@H](O)[C@@H](O)[C@H](O[C@H]2c3cc(C)c(C(=O)N[C@H](C)C(=O)O)c(O)c3-c3c(cc4c(c3O)C(=O)c3cc(OC)cc(O)c3C4=O)[C@@H]2O)O[C@@H]1C [Ex. 21, N-(Allyl) pradimicin B]	0.8 µg/mL (≈ 1.07 µM)	3.2 µg/mL (≈ 4.27 µM)	6.3 µg/mL (≈ 8.41 µM)	0.8 µg/mL (≈ 1.07 µM)	6.3 µg/mL (≈ 8.41 µM)	1.6 µg/mL (≈ 2.14 µM)	0.8 µg/mL (≈ 1.07 µM)	1.6 µg/mL (≈ 2.14 µM)	3.2 µg/mL (≈ 4.27 µM)	12.5 µg/mL (≈ 16.7 µM)	3.2 µg/mL (≈ 4.27 µM)	3.2 µg/mL (≈ 4.27 µM)	>50 mg/kg	2000 µg/mL (≈ 2670 µM)	
C#CCN(C)[C@@H]1[C@H](O)[C@@H](O)[C@H](O[C@H]2c3cc(C)c(C(=O)N[C@H](C)C(=O)O)c(O)c3-c3c(cc4c(c3O)C(=O)c3cc(OC)cc(O)c3C4=O)[C@@H]2O)O[C@@H]1C [Ex. 23, N-(Propargyl) pradimicin B]	1.6 µg/mL (≈ 2.14 µM)	50 µg/mL (≈ 67 µM)	> 50 µg/mL	1.6 µg/mL (≈ 2.14 µM)	50 µg/mL (≈ 67 µM)	1.6 µg/mL (≈ 2.14 µM)	0.8 µg/mL (≈ 1.07 µM)	1.6 µg/mL (≈ 2.14 µM)	25 µg/mL (≈ 33.5 µM)	50 µg/mL (≈ 67 µM)	25 µg/mL (≈ 33.5 µM)	25 µg/mL (≈ 33.5 µM)	>50 mg/kg	500 µg/mL (≈ 670 µM)	
COc1cc(O)c2c(c1)C(=O)c1c(cc3c(c1O)-c1c(cc(C)c(C(=O)N[C@H](C)C(=O)O)c1O)[C@H](O[C@@H]1O[C@H](C)[C@H](N(C)Cc4ccccc4)[C@H](O[C@@H]4OC[C@@H](O)[C@H](O)[C@H]4O)[C@H]1O)[C@H]3O)C2=O [Ex. 24, N-(Benzyl) pradimicin A]	> 50 µg/mL	> 50 µg/mL	> 50 µg/mL	12.5 µg/mL (≈ 13.4 µM)	> 50 µg/mL	1.6 µg/mL (≈ 1.72 µM)					3.2 µg/mL (≈ 3.44 µM)	3.2 µg/mL (≈ 3.44 µM)			MIC [19]: 50 µg/mL (≈ 53.7 µM); MIC [20]: 25 µg/mL (≈ 26.9 µM)
CN[C@@H]1[C@H](O)[C@@H](O)[C@H](O[C@H]2c3cc(C)c(C(=O)N[C@H](C)C(=O)O)c(O)c3-c3c(cc4c(c3O)C(=O)c3cc(OC)cc(O)c3C4=O)[C@@H]2O)O[C@@H]1C [Pradimicin B, reference compound]	1.6 µg/mL (≈ 2.26 µM)	3.2 µg/mL (≈ 4.52 µM)	3.2 µg/mL (≈ 4.52 µM)	0.8 µg/mL (≈ 1.13 µM)	3.2 µg/mL (≈ 4.52 µM)	0.8 µg/mL (≈ 1.13 µM)	0.8 µg/mL (≈ 1.13 µM)	0.8 µg/mL (≈ 1.13 µM)	3.2 µg/mL (≈ 4.52 µM)	12.5 µg/mL (≈ 17.6 µM)	3.2 µg/mL (≈ 4.52 µM)	3.2 µg/mL (≈ 4.52 µM)		70 µg/mL (≈ 98.8 µM)	PD₅₀ ([17]; Part B: route IM, at 1 and 3.5 hrs after infection and twice on the following day, 21 days after fungal challenge, method of Spearman-Karber, male ICR mice): >50 mg/kg; PD₅₀ ([17]; Part B: route IV, at 1 and 3.5 hrs after infection and twice on the following day, 21 days after fungal challenge, method of Spearman-Karber, male ICR mice): 32 mg/kg
